According to US20040043394A1, “Gene expression element specific for Ah receptor ligands and heterologous gene expression systems dependent on the element” (priority 2002, published 2004):

Assays:
AhR = details: cultured mammal cell; cited from earlier work
[1] = system: LexA operator promoter-LacZ reporter unit in yeast L40 strain expressing XDV/XVD (mouse AhR-ligand binding control region); test: Yeast reporter assay system for XDV/XVD (LacZ activity); format: cell-based; details: yeast introduced with XDV/XVD, FIG. 6
Experimental: Yeasts introduced with various XDV/XVD expression plasmids were pre-cultured overnight in a liquid selective medium containing glucose as a carbon source, cultured for 14 to 16 hours in a liquid selective medium containing an AhR-ligand and galactose(as a carbon source), and the LacZ activity was measured.
By using a reporter gene assay system using a yeast expression system, assessment of performance of XDV/XVD was performed.
An yeast L40 strain having a reporter unit composed of a LexA operator promoter and a β-galactosidase gene (LacZ) in a chromosome [(MATa his3Δ200 trp1-901 leu2-3112 ade2 LYS2:: (41exAop-HIS3)URA3:: (81exAop-lacZ)GAL4) (Invitrogen, Netherland)) was transformed, and assessed by the LacZ activity dependent on the expression of XDV/XVD and ligand treatment as an index. […]
Various AhR-ligands (dioxins) were dissolved in DMSO (a final concentration of DMSO in a medium was adjusted at 0.1%). […] An absorbance at 415 nm of the supernatant was measured. A LacZ unit was calculated by the following calculation equation:
LacZ unit=absorbance at 415 nm/[absorbance at 600 nm of a diluted cultured yeast solution in which 200 μL of cultured yeast solution was diluted up to 1 mL]×reaction time (min)]×1000

[2] = system: AhR-GUS and AhRV-GUS transformed tobacco plant (mouse AhR/AhRV, Arnt, XRE-GUS); test: GUS activity in transformed tobacco plants (AhR-GUS / AhRV-GUS) treated with AhR-ligand; format: in vivo, Nicotiana tabacum cv. Sumsun N N; details: for enhancement of the GUS activity in the presence of AhR-ligands: medium with 25 μM 20-MC, 25 μM β-NF, 50 μM indigo, stem and leaf soluble protein, FIG. 10
Text: A AhR-ligand specific gene expression system for plants was constructed. It was constructed by introducing a AhR, Arnt and XRE to a plant. From a liver cDNA library prepared from C57BL/6 mouse, an AhR cDNA (Schmidt, J. V., et al, 1993) and an Arnt cDNA (Reisz-Porszasz, S., et al, 1994) were cloned. In order to constitutively express both cDNAs in a plant, there were constructed two kinds of plant expression plasmids pSKA2G and pSKAvAtG. The plasmids comprising a tandemly aligned XRE sequence, a transcription factor expression unit (i.e. the first transcription structure) inserted in an expression unit composed of a cauliflower mosaic virus 35S promoter (CaMV35S-P) and a nopaline synthase terminator (Nos-T), and a reporter unit composed of a reporter gene and Nos-T (structures are shown in FIG. 7). The PSKAvAtG contains a chimera AhR (AhRV) in which transcriptional activation domain of AhR is substituted with VP16 transcriptional activation domain (AhRV gene). Using Agrobacterium with each plasmid introduced therein, a tobacco plant (Nicotiana tabacum cv. Sumsun N N) was transformed by a leaf disc method.
The plants which had been introduced with each plant expression plasmid were selected two times by antibiotic kanamycin. Each genomic DNA was extracted from re-differentiated individuals after kanamycin selection, and genomic PCR analysis was performed using primers specific for each of AhR or AhRV, Arnt and GUS.
The plant transformed with either pSKA2G or pSKAvAtG is designated as AhR-GUS or AhRV-GUS plants, respectively. Axillary buds were removed from all transformed plants. […] Then the soluble protein fractions were extracted from stem and leaf parts of the grown buds, and the GUS activities of the fractions were measured. The medium were added with 0.01% Tween 20 and an AhR-ligand (20-MC) or a solvent DMSO solution to a final concentration of 0.1%. Similarly, a axillary bud was cultured for 2 weeks on an MS medium in the presence of various concentrations (8 grades) of AhR-ligand 20 MC. The AhR-ligand dose dependent expression of the reporter was analyzed. In addition, similarly, a axillary bud was cultured for 2 weeks on an MS medium containing 25 μM 20-MC, and tissue-specific expression of a reporter in a plant was analyzed using a GUS staining method. That is, each tissue of a plant was impregnation-treated in a X-Gluc solution (0.1M sodium phosphate buffer, pH 7.0, 1.9 mM X-glucuronide, 0.5 mM K3Fe(CN)6, 0.5 mM K4Fe(CN)6, 0.3% (v/v) Triton X-100, 20% methanol) under reduced pressure, then incubated at 37° C. overnight, and 70% ethanol was added to stop the reaction. Thereafter, decoloration was performed in 70% ethanol, and the tissue was observed under an optical microscope or stereomicroscope.

Structure (SMILES) | TCDD concentration detectable (AhR) [ppb] | LacZ activity on AhR-ligand treatment, in words [1] | enhancement of the GUS activity in the presence of AhR-ligands [2] | GUS staining of tissues (X-Gluc) ([2]; 2 weeks on MS medium containing 25 μM 20-MC, leaf and stem, FIG. 12 B) | 20-MC concentration in a medium that can be detected by the transformed plant ([2]; axillary bud cultured 2 weeks on MS medium, 8 grades of 20-MC) [nM] | GUS activity dependent on AhR-ligand treatment, line 4 and line 21 of AhRV-GUS plant ([2]; line 4 and line 21 of the AhRV-GUS plant, stronger than GUS under CaMV 35S-P, FIG. 9)
Clc1cc2c(cc1Cl)Oc1cc(Cl)c(Cl)cc1O2 [TCDD, 2,3,7,8-TCDD] | 0.01 | – | – | – | – | –
O=c1cc(-c2ccccc2)oc2ccc3ccccc3c12 [β-NF, β-naphthoflovone] | – | enhancement of the LacZ activity was recognized | remarkable | – | – | –
Cc1ccc2cc3c(ccc4ccccc43)c3c2c1CC3 [20-MC, 20-methylcholanthrene] | – | – | remarkable | remarkable expression of a GUS reporter gene | 5 | very strong enhancement of the GUS activity
